The results in this text go back to patent US9522935B2, “Commands and method of treating cancer via RHO pathway” (priority 2013, dated 2016).

Structures are written as SMILES.

Assay [1] concerns HepG2 cells. Briefly: MTT assay, compounds related to LD030 on HepG2 cells. Format: cell-based, human. As to conditions: 48 hours; for inhibition at 0.1 µM / inhibition at 1 µM / inhibition at 10 µM / inhibition at 100 µM: Homo sapiens, HepG2, read-out: Effects on HepG2 Cells (inhibitory percentage). How it is done: (§1) MTT assay was used to detect cell viability after being treated with different compounds of the present invention related to LD030. The cell lines treated were on non-small lung cancer cell line A549, HepG2 cells and Panc1 cells.
(§2) MTT preservation solution preparation: 0.5 g MTT was dissolved in 100 ml of phosphate buffer solution (PBS), and bacteria contaminates were removed with a 0.22 μm membrane filter to obtain 0.5% MTT solution, which was stored in the dark at −20° C.
(§3) MTT working solution preparation: MTT preservation solution was diluted 10 times with sterile PBS to obtain MTT working solution.
(§4) 1640 complete medium preparation: 1640 base medium was added with an amount of fetal bovine serum (FBS) so that the medium contains 10% FBS by volume. Then an amount of double-antibody (i.e., penicillin and streptomycin) was added to make final concentration of penicillin at 100 units/ml and streptomycin at 100 ug/ml.
(§5) The experimental procedure is as follows:
(§6) (1) Take trypsin digested logarithmic phase cells and adjust the concentration of the cell suspension to 6×10^4 cell/ml, and then add 100 ul suspension of the cells under the test to each well on a 96-well plate and adjusted to a density of 6000 cells/well. The edge orifice is filled with sterile PBS.
(§7) (2) Placed the 96-well plate into a 37° C. incubator with 5% CO2 and incubate it overnight.
(§8) (3) Dissolve the test compounds in 200 ul DMSO to get a 5 mg/ml solution and dilute it to get 100 uM, 10 uM, 1 uM and 0.1 uM solutions. Add 100 ul of a solution to each of three repeat wells. Set a control well which has cells but without the compound of the present invention and a blank cell which contains no cells.
(§9) (4) Put the 96-well plate into a 37° C. incubator with 5% CO2 and incubate it for 48 hours. Examine the cells daily under a microscope.
(§10) (5) After being cultured for 48 hours, centrifuge and discard the culture liquid. Add 100 ul MTT working solution to each well, and continue incubating for 4 h.
(§11) (6) Terminate the culture, and carefully remove the culture medium. Then add 100 ul DMSO to each well and shake it at a low speed in a shaker for 10 min to make all crystals fully dissolved. The absorbance value of each well was measured by an enzyme-linked immunosorbent detector at the OD570 nm, and the inhibition rate of the different compounds with different concentration on cell growth can be obtained.
(In general: Tetrazolium assays rely on reduction of a dye to a coloured formazan, in cell work by metabolically active cells.)

The test system of assay [2] is Panc1 cells. Briefly: MTT assay, compounds related to LD030 on Panc1 cells. Format: cell-based, human. As to conditions: 48 hours; for inhibition at 0.1 µM / inhibition at 1 µM / inhibition at 10 µM / inhibition at 100 µM: Homo sapiens, PANC-1, read-out: Effects on Panc1 Cells (inhibitory percentage). On the procedure:
as §1, §2, §3, §4, §5, §6, §7, §8, §9, §10, §11

Assay [3] relates to non-small lung cancer cell line A549. Nature of the assay: MTT assay, compounds related to LD030 on A549 cells. Format: cell-based. As to conditions: for inhibition at 0.1 µM / inhibition at 1 µM / inhibition at 10 µM / inhibition at 100 µM: Homo sapiens, A549, read-out: Effects on A549 Cells (inhibitory percentage); for inhibition at 0.1 µM / inhibition at 1 µM / inhibition at 10 µM / inhibition at 100 µM / Effects on A549 Cells (inhibitory percentage): 48 hours. On the procedure: as §1, §2, §3, §4, §5, §6, §7, §8, §9, §10, §11

Take `CC(CCC(O)C(C)(C)O)C1CC[C@@]2(C)C34CC[C@H]5C(C)(C)[C@@H](O)CC[C@]5(C)C3(CC[C@]12C)O4` (stereo partly drawn) [LD 024]: the inhibition at 0.1 µM in assay [1] (0.1 μM) is 22%; in assay [2] (0.1 μM), -7.19%; in assay [3] (0.1 μM), 1.38%. Besides, the inhibition at 1 µM is 14.3% in assay [1] (1 μM), -8.39% in assay [2] (1 μM) and 6.04% in assay [3] (1 μM). The figures for the inhibition at 10 µM in assay [1] (10 μM), in assay [2] (10 μM) and in assay [3] (10 μM) were 5.86%, -13% and -0.22%, respectively. Further, the inhibition at 100 µM in assay [1] (100 μM) amounted to 2.1%; in assay [2] (100 μM), 6.95%; in assay [3] (100 μM), 34.6%.
Turning to `CC(=O)O[C@H]1CC[C@]2(C)C3=C(CC[C@H]2C1(C)C)[C@]1(C)CCC(C(C)CCC(O)C(C)(C)O)[C@@]1(C)CC3` (stereo partly drawn) [LD 021], the values for the inhibition at 0.1 µM in assay [1] (0.1 μM), in assay [2] (0.1 μM) and in assay [3] (0.1 μM) were 12.7%, -12.6% and 3.13%, respectively. The inhibition at 1 µM is 13.1% in assay [1] (1 μM), -4.96% in assay [2] (1 μM) and 1.31% in assay [3] (1 μM). Besides, the values for the inhibition at 10 µM in assay [1] (10 μM), in assay [2] (10 μM) and in assay [3] (10 μM) were 12.7%, 2.16% and 1.53%, respectively. Moreover, the inhibition at 100 µM in assay [1] (100 μM) amounted to 24.6%; in assay [2] (100 μM), 48.8%; in assay [3] (100 μM), 45.5%.
Regarding `CC(=O)O[C@H]1CC[C@]2(C)C3CC[C@]4(C)C(C(C)CCC(O)C(C)(C)O)CC[C@@]4(C)C3CC[C@H]2C1(C)C` (stereo partly drawn) [LD 028], the figures for the inhibition at 0.1 µM in assay [1] (0.1 μM), in assay [2] (0.1 μM) and in assay [3] (0.1 μM) were 29.4%, -9.19% and 3.24%, respectively. Further, the inhibition at 1 µM is 37.4% in assay [1] (1 μM), -0.48% in assay [2] (1 μM) and 10% in assay [3] (1 μM). Also, the inhibition at 10 µM is 67.8% in assay [1] (10 μM), -0.4% in assay [2] (10 μM) and -1.75% in assay [3] (10 μM). Further, the inhibition at 100 µM was 45.8% in assay [1] (100 μM), 0.16% in assay [2] (100 μM) and 29.2% in assay [3] (100 μM).
For the molecule `CC(=O)OC(CCC(C)C1CC[C@@]2(C)C34CC[C@H]5C(C)(C)[C@@H](OC(C)=O)CC[C@]5(C)C3(CC[C@]12C)O4)C(C)(C)OC(C)=O` (stereo partly drawn) [LD023], the “Effects on HepG2 Cells (inhibitory percentage)” value was determined as 26.53% in assay [1] (0.1 μM), 27.64% in assay [1] (1 μM), 19.13% in assay [1] (10 μM) and 23.00% in assay [1] (100 μM). The “Effects on Panc1 Cells (inhibitory percentage)” value in assay [2] (0.1 μM) is on record as −5.92%; in assay [2] (1 μM), −1.12%; in assay [2] (10 μM) it was −2.56%; in assay [2] (100 μM), 25.26%. Also, the “Effects on A549 Cells (inhibitory percentage)” value in assay [3] (0.1 μM) is 8.01%; in assay [3] (1 μM) it was 8.30%; in assay [3] (10 μM) it was 6.11%; in assay [3] (100 μM), 12.70%.
For `CC(CCC(=O)C(C)(C)O)C1CC[C@@]2(C)C34CC[C@H]5C(C)(C)C(=O)CC[C@]5(C)C3(CC[C@]12C)O4` (stereo partly drawn) [LD 025], the inhibition at 0.1 µM was -1.15% in assay [1] (0.1 μM), -16.5% in assay [2] (0.1 μM) and 25.2% in assay [3] (0.1 μM). Besides, the figures for the inhibition at 1 µM in assay [1] (1 μM), in assay [2] (1 μM) and in assay [3] (1 μM) were -19.1%, -12.8% and 1.71%, respectively. For the same molecule, the results for the inhibition at 10 µM in assay [1] (10 μM), in assay [2] (10 μM) and in assay [3] (10 μM) were -1.79%, -9.57% and 0.51%, respectively. Besides, the inhibition at 100 µM in assay [1] (100 μM) is 20.5%; in assay [2] (100 μM), -16%; in assay [3] (100 μM) it was 16.9%.
Consider `CC(=O)OC(CCC(C)C1CC[C@@]2(C)C3=C(CC[C@]12C)[C@@]1(C)CCC(=O)C(C)(C)[C@@H]1CC3)C(C)(C)OC(C)=O` (stereo partly drawn) [LD 014], for which the inhibition at 0.1 µM was 0.64% in assay [1] (0.1 μM), -5.26% in assay [2] (0.1 μM) and 21.3% in assay [3] (0.1 μM). In addition, the inhibition at 1 µM in assay [1] (1 μM) is -20.7%; in assay [2] (1 μM), -3.05%; in assay [3] (1 μM), 9.46%. For the same molecule, the inhibition at 10 µM came out at 2.93% in assay [1] (10 μM), 3.89% in assay [2] (10 μM) and 3.02% in assay [3] (10 μM). Besides, the inhibition at 100 µM in assay [1] (100 μM) is 61.4%; in assay [2] (100 μM), 24.1%; in assay [3] (100 μM), 34.6%.
Consider `CC(=O)O[C@H]1CC[C@]2(C)C3=C(CC[C@H]2C1(C)C)[C@]1(C)CCC(C(C)CCC2OC2(C)C)[C@@]1(C)CC3` (stereo partly drawn) [LD 026-1], for which the inhibition at 0.1 µM in assay [1] (0.1 μM) is -3.32%; in assay [2] (0.1 μM), -2.84%; in assay [3] (0.1 μM) it was 21.8%. Also, the inhibition at 1 µM in assay [1] (1 μM) was -0.13%; in assay [2] (1 μM), 9.46%; in assay [3] (1 μM), 6.66%. The inhibition at 10 µM was found to be 12.7% in assay [1] (10 μM), 8.83% in assay [2] (10 μM) and 8.3% in assay [3] (10 μM). Moreover, the inhibition at 100 µM came to 58.1% in assay [1] (100 μM), 34.4% in assay [2] (100 μM) and 39.8% in assay [3] (100 μM).
As for `CC(C)=CCC[C@@H](C)[C@H]1CC[C@@]2(C)C3=C(CC[C@]12C)[C@@]1(C)CCC(=O)C(C)(C)[C@@H]1CC3` [LD 012], the “Effects on HepG2 Cells (inhibitory percentage)” value in assay [1] (0.1 μM) is recorded as 10.53%; in assay [1] (1 μM), −15.82%; in assay [1] (10 μM) it was −1.79%; in assay [1] (100 μM), 47.72%. For the same molecule, the “Effects on Panc1 Cells (inhibitory percentage)” value in assay [2] (0.1 μM) is listed as 5.68%; in assay [2] (1 μM) it was 5.68%; in assay [2] (10 μM), 10.20%; in assay [2] (100 μM), 39.54%. Moreover, the “Effects on A549 Cells (inhibitory percentage)” value in assay [3] (0.1 μM) worked out at 1.31%; in assay [3] (1 μM) it was 28.04%; in assay [3] (10 μM), 39.34%; in assay [3] (100 μM), 91.76%. For the same molecule, the “inhibition rate on A549” value in assay [3] (concentration not given) is on record as “more than 90%”.
In the case of `CC(=O)O[C@H]1CC[C@@]2(C)[C@@H](CCC34OC32CC[C@]2(C)C(C(C)CCC(O)C(C)(C)O)CC[C@@]42C)C1(C)C` (stereo partly drawn) [LD027], the inhibition at 0.1 µM in assay [2] (0.1 μM) was 2.21%; in assay [3] (0.1 μM), -1.4%. The inhibition at 1 µM in assay [2] (1 μM) was 10.1%; in assay [3] (1 μM) it was -4.98%. Moreover, the results for the inhibition at 10 µM in assay [2] (10 μM) and in assay [3] (10 μM) were 16.7% and 12.9%, respectively. For the same molecule, the inhibition at 100 µM in assay [2] (100 μM) stood at 28.7%; in assay [3] (100 μM), 58.6%.
With `CC(=O)OC(CCC(C)C1CC[C@@]2(C)C3=C(CC[C@]12C)[C@@]1(C)CC[C@H](OC(C)=O)C(C)(C)[C@@H]1CC3)C(C)(C)OC(C)=O` (stereo partly drawn) [LD 022], the “Effects on HepG2 Cells (inhibitory percentage)” value in assay [1] (0.1 μM) turned out to be 20.67%; in assay [1] (1 μM) it was 31.18%; in assay [1] (10 μM) it was 24.88%; in assay [1] (100 μM), 24.54%. Moreover, the “Effects on Panc1 Cells (inhibitory percentage)” value was −6.95% in assay [2] (0.1 μM), −5.28% in assay [2] (1 μM), −2.48% in assay [2] (10 μM) and −6.24% in assay [2] (100 μM). The “Effects on A549 Cells (inhibitory percentage)” value in assay [3] (0.1 μM) came out at 4.73%; in assay [3] (1 μM), 8.99%; in assay [3] (10 μM), 6.92%; in assay [3] (100 μM), 35.89%.
